Laboratory results taken from ChEMBL document CHEMBL1777696, “Anti-inflammatory activity of constituents from Glechoma hederacea var. longituba” (Bioorg Med Chem Lett, 2011).
Calls of active or inactive are those of the source. The calls are words filed in the database; no cut-off is given here.

Key:
HepG2 [1] = assay: Inhibition of TNF-alpha-induced NF-kappaB transactivation expressed in human HepG2 cells at 20 uM preincubated 1 hr before TNFalpha challenge measured after 1 hr by luciferase reporter gene assay; assay type: cell-based
HepG2 [2] = assay: Cytotoxicity against human HepG2 cells up to 20 uM after 24 hrs by MTS assay; assay type: cell-based; conditions: hepg2, 24 h
HepG2 [3] = assay: Inhibition of TNF-alpha-induced iNOS mRNA expression in human HepG2 cells expressing NF-kappaB preincubated 1 hr before TNFalpha challenge measured after 6 hrs by RT-PCR analysis; assay type: functional, cell-based
HepG2 [4] = assay: Inhibition of TNF-alpha-induced COX2 mRNA expression in human HepG2 cells expressing NF-kappaB preincubated 1 hr before TNFalpha challenge measured after 6 hrs by RT-PCR analysis; assay type: functional, cell-based
HepG2 [5] = assay: Inhibition of TNF-alpha-induced NF-kappaB transactivation expressed in human HepG2 cells at 10 uM preincubated 1 hr before TNFalpha challenge measured after 1 hr by luciferase reporter gene assay; assay type: cell-based
HepG2 [6] = assay: Inhibition of TNF-alpha-induced NF-kappaB transactivation expressed in human HepG2 cells at 0.1 to 20 uM preincubated 1 hr before TNFalpha challenge measured after 1 hr by luciferase reporter gene assay; assay type: cell-based

SMILES | inhibition (HepG2 [1]) | Activity (HepG2 [2]) | inhibition (HepG2 [3]) | inhibition (HepG2 [4]) | inhibition (HepG2 [5]) | inhibition (HepG2 [6])
CCOC(=O)[C@@H](Cc1ccc(O)c(O)c1)OC(=O)/C=C/c1ccc(O)c(O)c1 [ETHYL ROSMARINATE] | 57% | Non-toxic | Dose-dependent effect | Dose-dependent effect |  | 
COC(=O)[C@@H](Cc1ccc(O)c(O)c1)OC(=O)/C=C/c1ccc(OC)c(O)c1 | 45.4% | Non-toxic | Dose-dependent effect | Dose-dependent effect | 28.7% | 
COc1cc(/C=C/C(=O)O[C@H](Cc2ccc(O)c(O)c2)C(=O)O)ccc1O |  | Non-toxic |  |  |  | Active
O=C(OCc1ccccc1)c1ccc(O)c(O[C@@H]2O[C@H](CO)[C@@H](O)[C@H](O)[C@H]2O)c1 |  | Non-toxic |  |  |  | Active
O=C(/C=C/c1ccc(O)c(O)c1)O[C@H](Cc1ccc(O)c(O)c1)C(=O)O [ROSMARINIC ACID] | 22.7% | Non-toxic |  |  |  | 
COC(=O)[C@@H](Cc1ccc(O)c(O)c1)OC(=O)/C=C/c1ccc(O)c(O)c1 [METHYL ROSMARINATE] | 44.3% | Non-toxic | Dose-dependent effect | Dose-dependent effect |  | 
